From PMC12566520, “Targeted Modification of the Antimicrobial Peptide DGL13K Reveals a Naturally Optimized Sequence for Topical Applications” (Microorganisms, 2025)
Read-outs that look alike come from different tables or passages of the source. Square brackets hold non-standard residues; d marks the D form. Ends that are not written are not given here. Peptide text beside a SMILES is read from it. d(aIle) = CC[C@H](C)[C@@H](N)C(=O)O; aIle = CC[C@@H](C)[C@H](N)C(=O)O

What was measured:
[1] = test system: Pseudomonas aeruginosa Xen41; assay type: cell-based; conditions: for MIC P. aeruginosa: overnight 37 °C, OD630
Method: (§1) Pseudomonas aeruginosa Xen41 and Staphylococcus aureus Xen36 were obtained from Xenogen (Alameda, CA; now Revvity, Waltham, MA, USA) and Revvity, respectively, and stored at −80 °C in 10% glycerol. P. aeruginosa were cultured in Luria-Bertani broth while S. aureus were cultured in Todd-Hewitt Broth (Difco, Franklin Lakes, NJ, USA) overnight at 37 °C and shaking at 200 rpm. Cultures typically reached an optical density at 600 nm of 1.7 for P. aeruginosa and 1.3 for S. aureus.
(§2) MIC assays were performed as previously described. Briefly, overnight cultures of P. aeruginosa Xen41 were diluted to 10^5 CFU/mL in Mueller-Hinton Broth (Difco) while S. aureus Xen36 were similarly diluted in Todd-Hewitt Broth. Bacteria (100 µL) were added to 20 µL of 2-fold peptide dilutions in 10% PBS in 96-well polypropylene culture plates. The plates were incubated overnight at 37 °C with gentle rocking and then the optical density at 630 nm (OD630) was recorded in a BioTek Synergy HT plate reader (BioTek, Winooski, VT, USA; now Agilent, Santa Clara, CA, USA). Bioluminescence was recorded for quality control of the bioluminescent bacteria.

[2] = test system: Staphylococcus aureus Xen36; assay type: cell-based; conditions: for MIC S. aureus: overnight 37 °C, OD630; for Antibacterial activity against S. aureus compared with unmodified peptide (in words): MIC assay
Method: as §1, §2

P. aeruginosa [3] = test system: P. aeruginosa; design: method as in PMID 23917321; conditions: bacterial proteases, cultures of Gram-negative P. aeruginosa; cited from earlier work
P. aeruginosa [4] = assay: Heat stability (MIC assay after heating); assay type: physicochemical, Pseudomonas aeruginosa; conditions: 1 mg/mL in 10% PBS, 80 °C for 60 min vs room temperature; read-out MIC assay against P. aeruginosa; duplicates, N = 2, repeated with similar results
Method: Peptides were diluted to 1 mg/mL in sterile 10% PBS (1 part PBS, 9 parts dH2O) and heated for 60 min in a 0.5 mL microcentrifuge tube in a water bath set at 80 °C. Control samples were similarly incubated at room temperature. The samples were used for MIC assays, as described below.
as §2
Figure 1 Heat stability of GL13K peptides. LGL13K (circles) or DGL13K (boxes) were incubated for 1 h at room temperature (open symbols) or 80 °C (closed symbols) and then used for an MIC assay against P. aeruginosa. Duplicate samples were tested and plotted as mean ± range, N = 2. The experiment was repeated with similar results.

Enterococcus faecalis = conditions: cited from earlier work
Text: Proteolytic processing of AMPs has been cited as a concern for their development for clinical use. DGL13K was originally designed to overcome proteolytic processing of the L-enantiomer in cultures of P. aeruginosa.

[5] = aqueous stock 10 mg/mL in dH2O or 0.01% acetic acid, 4 °C, more than 2 years; cited from earlier work
Text: Peptides are typically considered inherently unstable in aqueous solutions [57].

[6] = cited from earlier work
human red blood cells = conditions: cited from earlier work
Text: The selective activity of many AMPs exploits the compositional differences between prokaryotic and eukaryotic membranes to avoid mammalian cell toxicity. The selectivity of AMPs is typically determined as the ratio between the hemolytic concentration and the MIC of the AMP (therapeutic index). One measure of the hemolytic activity is the peptide concentration leading to 50% lysis of red blood cells (HC50 = hemolytic concentration 50). This assay is routinely used for screening purposes and the lack of red cell toxicity is an important consideration for IV delivery of an AMP. ...

[7] = Table 2, Xen41, 10^5 CFU/mL in Mueller-Hinton Broth, median MIC of 1–3 independent experiments
[8] = Table 2, Xen36, 10^5 CFU/mL in Todd-Hewitt Broth, median MIC of 1–3 independent experiments
[9] = Table 3, Xen41, Mueller-Hinton Broth, median MIC of 2–4 independent experiments, values outside tested range set at 1000 µg/mL
[10] = Table 3, Xen36, Todd-Hewitt Broth, median MIC of 2–4 independent experiments, values outside tested range set at 1000 µg/mL

With `CC[C@H](C)[C@@H](NC(=O)[C@@H](CCCCN)NC(=O)CN)C(=O)N[C@@H](C(=O)N[C@H](CCCCN)C(=O)N[C@H](CC(C)C)C(=O)N[C@H](CCCCN)C(=O)N[C@H](C)C(=O)N[C@H](CO)C(=O)N[C@H](CC(C)C)C(=O)N[C@H](CCCCN)C(=O)N[C@H](CC(C)C)C(=O)N[C@H](CC(C)C)C(N)=O)[C@@H](C)CC` [D-allo-Ile GL13K] (H-G[dK][d(aIle)][d(aIle)][dK][dL][dK][dA][dS][dL][dK][dL][dL]-NH2; N-terminus assumed) the “MIC P. aeruginosa” value [1, 7] was 5.2 µg/mL and the “MIC S. aureus” value [2, 8] was 2.6 µg/mL.

With `CC[C@@H](C)[C@@H](NC(=O)[C@@H](Cc1c[nH]c2ccccc12)NC(=O)[C@@H](CCCCN)NC(=O)[C@@H](CCCCN)NC(=O)CN)C(=O)N[C@H](CCCCN)C(=O)N[C@H](CCCCN)C(=O)N[C@H](C)C(=O)N[C@H](CO)C(=O)N[C@H](CCCCN)C(=O)N[C@H](Cc1c[nH]c2ccccc12)C(=O)N[C@H](CC(C)C)C(=O)O` [DGL12W] (H-G[dK][dK][dW][dI][dK][dK][dA][dS][dK][dW][dL]-OH; N-terminus assumed) the “MIC P. aeruginosa” value [1, 9] was 13 µg/mL and the “Antibacterial activity against S. aureus compared with unmodified peptide (in words)” value [2] was “lost its activity”.

In the case of `CC[C@@H](C)[C@@H](NC(=O)[C@@H](CCCCN)NC(=O)CN)C(=O)N[C@@H](C(=O)N[C@H](CCCCN)C(=O)N[C@H](CC(C)C)C(=O)N[C@H](CCCCN)C(=O)N[C@H](C)C(=O)N[C@H](CO)C(=O)N[C@H](CC(C)C)C(=O)N[C@H](CCCCN)C(=O)N[C@H](CC(C)C)C(=O)N[C@H](CC(C)C)C(N)=O)[C@H](C)CC` [DGL13K] (H-G[dK][dI][dI][dK][dL][dK][dA][dS][dL][dK][dL][dL]-NH2; N-terminus assumed), the “Proteolytic degradation in cultures of P. aeruginosa” value (P. aeruginosa [3]) is given as “not degraded”, the “Loss of activity after heating of solution” value (P. aeruginosa [4]) is given as “no loss of activity” and the “Proteolytic degradation in cultures of Enterococcus faecalis” value (Enterococcus faecalis) is given as “resists proteolytic degradation”. For the same compound, the “Loss of antibacterial activity of aqueous solution after storage” value [5] was “did not lose antibacterial activity”, the stability of aqueous solution (no loss of antibacterial activity) [6] was greater than 2 years and the “HC50 (peptide concentration leading to 50% lysis of red blood cells)” value (human red blood cells) was 500 to 1000 µg/mL. For the same compound, the “MIC P. aeruginosa” value [1, 7] was 7.8 µg/mL, the “MIC P. aeruginosa” value [1, 9] was 5.2 µg/mL and the “MIC S. aureus” value [2, 8] was 2.6 µg/mL. For the same compound, the “MIC S. aureus” value [2, 10] was 1.3 µg/mL.

With `CC[C@@H](C)[C@@H](NC(=O)[C@@H](CCCNC(=N)N)NC(=O)CN)C(=O)N[C@@H](C(=O)N[C@H](CCCNC(=N)N)C(=O)N[C@H](CC(C)C)C(=O)N[C@H](CCCNC(=N)N)C(=O)N[C@H](C)C(=O)N[C@H](CO)C(=O)N[C@H](CC(C)C)C(=O)N[C@H](CCCNC(=N)N)C(=O)N[C@H](CC(C)C)C(=O)N[C@H](CC(C)C)C(N)=O)[C@H](C)CC` [DGL13R] (H-G[dR][dI][dI][dR][dL][dR][dA][dS][dL][dR][dL][dL]-NH2; N-terminus assumed) the “Antibacterial activity against S. aureus compared with unmodified peptide (in words)” value [2] was “not different from the parent peptide” and the “MIC S. aureus” value [2, 10] was 2.6 µg/mL.

In the case of `CC[C@@H](C)[C@H](NC(=O)[C@H](CCCCN)NC(=O)CN)C(=O)N[C@H](C(=O)N[C@@H](CCCCN)C(=O)N[C@@H](CC(C)C)C(=O)N[C@@H](CCCCN)C(=O)N[C@@H](C)C(=O)N[C@@H](CO)C(=O)N[C@@H](CC(C)C)C(=O)N[C@@H](CCCCN)C(=O)N[C@@H](CC(C)C)C(=O)N[C@@H](CC(C)C)C(N)=O)[C@H](C)CC` [L-allo-Ile GL13K] (H-GK[aIle][aIle]KLKASLKLL-NH2; N-terminus assumed), the “MIC P. aeruginosa” value [1, 7] was 10.4 µg/mL and the “MIC S. aureus” value [2, 8] was 83.3 µg/mL.

For GKIIKLKASLKLL-NH2 [LGL13K], the “Proteolytic degradation in cultures of P. aeruginosa” value (P. aeruginosa [3]) is given as “susceptible to bacterial proteases”, the “HC50 (peptide concentration leading to 50% lysis of red blood cells)” value (human red blood cells) is given as 500 to 1000 µg/mL and the “MIC P. aeruginosa” value [1, 7] is given as 10.4 µg/mL. The “MIC S. aureus” value [2, 8] was 83.3 µg/mL.

For “GKIIKLKASLKLL-NH2 [PEG-LGL13K, N-terminally PEGylated version of LGL13K]”, the “Fold increase in MIC for P. aeruginosa versus unmodified parent peptide” value ([1]; compared with DGL13K (or LGL13K for PEG-LGL13K), Figure 4 / Table 3) was “three-fold” and the “Fold increase in MIC for S. aureus versus unmodified parent peptide” value ([2]; compared with DGL13K (or LGL13K for PEG-LGL13K), Figure 4) was “two”.
